Non-standard residues stand in square brackets, D forms with d. No end group written: not given here.
Legend:
[1] = system: peptide-pulsed A24LCL cells; experiment: IFN-gamma ELISPOT assay on CTLs induced with VANGL1 peptides; assay type: cell-based, human; conditions: CTLs from HLA-A*2402 positive donor after 3rd peptide stimulation, day 21; compared to the control wells
Description: (§1) Monocyte-derived dendritic cells (DCs) were used as antigen-presenting cells (APCs) to induce cytotoxic T lymphocyte (CTL) responses against peptides presented on human leukocyte antigen (HLA). DCs were generated in vitro as described elsewhere (Nakahara S et al., Cancer Res 2003 Jul. 15, 63(14): 4112-8). Specifically, peripheral blood mononuclear cells (PBMCs) isolated from a normal volunteer (HLA-A*2402 positive) by Ficoll-Plaque (Pharmacia) solution were separated by adherence to a plastic tissue culture dish (Becton Dickinson) so as to enrich them as the monocyte fraction. The monocyte-enriched population was cultured in the presence of 1,000 U/ml of granulocyte-macrophage colony-stimulating factor (GM-CSF) (R&D System) and 1,000 U/ml of interleukin (IL)-4 (R&D System) in AIM-V Medium (Invitrogen) containing 2% heat-inactivated autologous serum (AS). After 7 days of culture, the cytokine-induced DCs were pulsed with 20 micro-g/ml of each of the synthesized peptides in the presence of 3 micro-g/ml of beta 2-microglobulin for 3 hrs at 37 degrees C. in AIM-V Medium. The generated cells appeared to express DC-associated molecules, such as CD80, CD83, CD86 and HLA class II, on their cell surfaces (data not shown). These peptide-pulsed DCs were then inactivated by X-irradiation (20 Gy) and mixed at a 1:20 ratio with autologous CD8+ T cells, obtained by positive selection with CD8 Positive Isolation Kit (Dynal). These cultures were set up in 48-well plates (Corning); each well contained 1.5×10^4 peptide-pulsed DCs, 3×10^5 CD8+ T cells and 10 ng/ml of IL-7 (R&D System) in 0.5 ml of AIM-V/2% AS medium. Three days later, these cultures were supplemented with IL-2 (CHIRON) to a final concentration of 20 IU/ml. On days 7 and 14, the T cells were further stimulated with the autologous peptide-pulsed DCs. The DCs were prepared each time by the same way described above. CTL was tested against peptide-pulsed A24LCL cells after the 3rd round of peptide stimulation on day 21 (Tanaka H et al., Br J Cancer 2001 Jan. 5, 84(1): 94-9; Umano Y et al., Br J Cancer 2001 Apr. 20, 84(8): 1052-7; Uchida N et al., Clin Cancer Res 2004 Dec. 15, 10(24): 8577-86; Suda T et al., Cancer Sci 2006 May, 97(5): 411-9; Watanabe T et al., Cancer Sci 2005 August, 96(8): 498-506).
(§2) To examine specific CTL activity, interferon (IFN)-gamma enzyme-linked immunospot (ELISPOT) assay and IFN-gamma enzyme-linked immunosorbent assay (ELISA) were performed. Specifically, peptide-pulsed A24LCL (1×10^4/well) was prepared as stimulator cells. Cultured cells in 48 wells were used as responder cells. IFN-gamma ELISPOT assay and IFN-gamma ELISA assay were performed under manufacture procedure.

[2] = system: peptide-pulsed A24LCL cells; experiment: IFN-gamma ELISA assay of established CTL lines; assay type: cell-based, human; conditions: target cells pulsed with corresponding peptide vs target cells without peptide pulse
Description: as §1
CTLs were expanded in culture using the method similar to the one described by Riddell et al. (Walter E A et al., N Engl J Med 1995 Oct. 19, 333(16): 1038-44; Riddell S R et al., Nat Med 1996 February, 2(2): 216-23). A total of 5×10^4 CTLs were suspended in 25 ml of AIM-V/5% AS medium with 2 kinds of human B-lymphoblastoid cell lines, inactivated by Mitomycin C, in the presence of 40 ng/ml of anti-CD3 monoclonal antibody (Pharmingen). One day after initiating the cultures, 120 IU/ml of IL-2 were added to the cultures. The cultures were fed with fresh AIM-V/5% AS medium containing 30 IU/ml of IL-2 on days 5, 8 and 11 (Tanaka H et al., Br J Cancer 2001 Jan. 5, 84(1): 94-9; Umano Y et al., Br J Cancer 2001 Apr. 20, 84(8): 1052-7; Uchida N et al., Clin Cancer Res 2004 Dec. 15, 10(24): 8577-86; Suda T et al., Cancer Sci 2006 May, 97(5): 411-9; Watanabe T et al., Cancer Sci 2005 August, 96(8): 498-506).
as §2

[3] = system: COS7 cells transfected with VANGL1 and HLA-A*2402; experiment: Specific CTL activity against target cells exogenously expressing VANGL1 and HLA-A*2402; assay type: cell-based, African green monkey
Description: The cDNA encoding an open reading frame of target genes or HLA-A*2402 was amplified by PCR. The PCR-amplified product was cloned into pCAGGS vector. The plasmids were transfected into COS7, which is the target genes and HLA-A24-negative cell line, using lipofectamine 2000 (Invitrogen) according to the manufacturer's recommended procedures. After 2 days from transfection, the transfected cells were harvested with versene (Invitrogen) and used as the target cells (5×10^4 cells/well) for CTL activity assay.
The established CTL lines raised against these peptides were examined for their ability to recognize target cells that endogenously express VANGL1 and HLA-A*2402 molecule. Specific CTL activity against COS7 cells which transfected with both the full length of VANGL1 and HLA-A*2402 molecule gene (a specific model for the target cells that exogenously express VANGL1 and HLA-A*2402 gene) was tested using the CTL lines raised by corresponding peptide as the effecter cells. COS7 cells transfected with either full length of VANGL1 genes or HLA-A* 2402 were prepared as controls.

[4] = system: target cells pulsed peptide; experiment: IFN-gamma ELISA assay of CTL clones established by limiting dilution; assay type: cell-based, human; conditions: CTL clones against target cells pulsed peptide
Description: The dilutions were made to have 0.3, 1, and 3 CTLs/well in 96 round-bottomed micro titer plate (Nalge Nunc International). CTLs were cultured with 1×10^4 cells/well of 2 kinds of human B-lymphoblastoid cell lines, 30 ng/ml of anti-CD3 antibody, and 125 U/ml of IL-2 in a total of […] of AIM-V Medium containing 5% AS. 50 micro-Dwell of IL-2 were added to the medium 10 days later so to reach a final concentration of 125 U/ml IL-2. CTL activity was tested on the 14th day, and CTL clones were expanded using the same method as described above (Uchida N et al., Clin Cancer Res 2004 Dec. 15, 10(24): 8577-86; Suda T et al., Cancer Sci 2006 May, 97(5): 411-9; Watanabe T et al., Cancer Sci 2005 August, 96(8): 498-506).
as §2

## NYQGiVQYAV (NYQG[code i]VQYAV) [SEQ ID NO: 32]
[1]
  Peptide specific CTL activity: IFN-gamma production (ELISPOT): potent IFN-gamma production
[2]
  CTL activity of CTL lines: IFN-gamma production (ELISA): potent IFN-gamma production

## RYLSAGPTL [SEQ ID NO: 1]
[1]
  Peptide specific CTL activity: IFN-gamma production (ELISPOT): potent IFN-gamma production
[3]; COS7 cells expressing both VANGL1 and HLA-A*2402
  Specific CTL activity: potent CTL activity
[3]; controls: COS7 cells transfected with either full length VANGL1 or HLA-A*2402
  Specific CTL activity: no significant specific CTL activity
[2]
  CTL activity of CTL lines: IFN-gamma production (ELISA): potent IFN-gamma production

## LFVVSYWLF [SEQ ID NO: 12]
[1]
  Peptide specific CTL activity: IFN-gamma production (ELISPOT): potent IFN-gamma production
[2]
  CTL activity of CTL lines: IFN-gamma production (ELISA): potent IFN-gamma production

## RYLGLTVAS [SEQ ID NO: 11]
[1]
  Peptide specific CTL activity: IFN-gamma production (ELISPOT): potent IFN-gamma production
[2]
  CTL activity of CTL lines: IFN-gamma production (ELISA): potent IFN-gamma production

## VFVFRALLL [SEQ ID NO: 8]
[1]
  Peptide specific CTL activity: IFN-gamma production (ELISPOT): potent IFN-gamma production
[4]
  IFN-gamma production from CTL clones (ELISA): Potent IFN-gamma productions
[2]
  CTL activity of CTL lines: IFN-gamma production (ELISA): potent IFN-gamma production

## LFISmAFKLL (LFIS[code m]AFKLL) [SEQ ID NO: 25]
[1]
  Peptide specific CTL activity: IFN-gamma production (ELISPOT): potent IFN-gamma production
[2]
  CTL activity of CTL lines: IFN-gamma production (ELISA): potent IFN-gamma production

## DFTIyNPNLL (DFTI[code y]NPNLL) [SEQ ID NO: 26]
[1]
  Peptide specific CTL activity: IFN-gamma production (ELISPOT): potent IFN-gamma production

## VFRALLLVL [SEQ ID NO: 9]
[1]
  Peptide specific CTL activity: IFN-gamma production (ELISPOT): potent IFN-gamma production
[2]
  CTL activity of CTL lines: IFN-gamma production (ELISA): potent IFN-gamma production

## HYLAiVLLEL (HYLA[code i]VLLEL) [SEQ ID NO: 18]
[1]
  Peptide specific CTL activity: IFN-gamma production (ELISPOT): potent IFN-gamma production
[4]
  IFN-gamma production from CTL clones (ELISA): Potent IFN-gamma productions
[2]
  CTL activity of CTL lines: IFN-gamma production (ELISA): potent IFN-gamma production

## LFIHyLAIVL (LFIH[code y]LAIVL) [SEQ ID NO: 24]
[1]
  Peptide specific CTL activity: IFN-gamma production (ELISPOT): potent IFN-gamma production
[4]
  IFN-gamma production from CTL clones (ELISA): Potent IFN-gamma productions
[2]
  CTL activity of CTL lines: IFN-gamma production (ELISA): potent IFN-gamma production

## VELTpIAFIL [SEQ ID NO: 22]
[1]
  Peptide specific CTL activity: IFN-gamma production (ELISPOT): potent IFN-gamma production
[4]
  IFN-gamma production from CTL clones (ELISA): Potent IFN-gamma productions
[2]
  CTL activity of CTL lines: IFN-gamma production (ELISA): potent IFN-gamma production
